The values below come from patent publication US20240307409A1, “ARGININE METHYLTRANSFERASE INHIBITOR AND USE THEREOF” (Cytosinlab Therapeutics Co., Ltd., priority 2021, published 2024).

SMILES strings stand for the structures.

The target in one assay is PRMT1 (Homo sapiens, UniProt Q99873). In words: PRMT1 enzyme activity test. The format is biochemical. The settings on record: 0.5 nM PRMT1, 3H-SAM, peptide. In short, it runs like this: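 Radiometric methylation assay: 0.5 nM PRMT1 preincubated 15 min at room temperature with compound (10-point 3-fold series, 1% DMSO) in pH 8.0 Tris buffer with Tween-20 and DTT. 0.25 uM ³H-SAM and 0.1 uM biotinylated peptide then reacted 120 min. Product captured on streptavidin FlashPlate and counted; IC50 from four-parameter fit of % inhibition.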

The next assay has as its system Toledo cells. The assay can be described thus: Toledo cell proliferation inhibition assay. To be noted: Homo sapiens, Toledo, 144 h; six-day assay, CellTiter-Glo. Type of assay: cell-based. The essentials: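 Toledo cells seeded at 2000 cells/well in RPMI 1640 + 10% FBS and incubated with compound for six days at 37° C, 5% CO2. Viability was then read by CellTiter-Glo luminescence after 30 min orbital mixing.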
In general terms: In ATP-based viability assays light output follows the ATP content of the culture.

Chain of PRMT1 (Q99873 whole entry): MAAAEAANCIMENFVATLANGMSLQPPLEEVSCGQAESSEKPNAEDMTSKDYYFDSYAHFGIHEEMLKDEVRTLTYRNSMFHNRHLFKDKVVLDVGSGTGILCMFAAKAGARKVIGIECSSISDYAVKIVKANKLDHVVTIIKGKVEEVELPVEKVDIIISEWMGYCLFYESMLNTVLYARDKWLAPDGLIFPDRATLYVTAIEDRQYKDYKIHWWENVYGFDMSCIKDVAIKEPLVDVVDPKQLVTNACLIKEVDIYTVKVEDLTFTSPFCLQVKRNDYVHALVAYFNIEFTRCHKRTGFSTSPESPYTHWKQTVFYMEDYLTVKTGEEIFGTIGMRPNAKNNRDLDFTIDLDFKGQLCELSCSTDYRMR

Usually IC50 stands for the concentration that inhibits the measured activity by half. Consider `CNCCN(C)Cc1ncccc1C1CCN(c2ccccc2C#N)CC1` [P201], for which the IC50 was less than 0.05 µM against PRMT1 and less than 1 µM in the assay with Toledo cells.
As for `CNCCN(C)Cc1ncccc1C1CCN(C(=O)c2ccccc2)CC1` [P203], the IC50 on PRMT1 is 0.05 to 0.5 µM; in the assay on Toledo cells it was not below 5 µM.
As to `CCOCC1(COCC)CCC(c2ccncc2CN(C)CCNC)CC1` [P205], the values for the IC50 at PRMT1 and with Toledo cells were 0.05 to 0.5 µM and 1 to 5 µM, respectively.
In the case of `CNCCN(C)Cc1ncccc1C1CCN(c2cccnc2)CC1` [P214], the IC50 against PRMT1 is less than 0.05 µM; in the assay with Toledo cells it was 1 to 5 µM.
Regarding `CNCCN(C)Cc1ncccc1C1CCN(c2ccncc2)CC1` [P215], the IC50 against PRMT1 was less than 0.05 µM; in the assay with Toledo cells it was 1 to 5 µM.
The corresponding values for `CNCCN(C)Cc1ncccc1C1CCN(c2ccccn2)CC1` [P216] are less than 0.05 µM and 1 to 5 µM.
Regarding `CCOCC1CCCN(c2cccnc2CN(C)CCNC)C1` (centres unmarked) [P217], the half-inhibitory concentration (IC50) against PRMT1 was 0.05 to 0.5 µM; in the assay with Toledo cells, 1 to 5 µM.
Consider `CCOCC1CCN(c2cccnc2CN(C)CCNC)CC1` [P218], for which the IC50 at PRMT1 is less than 0.05 µM; in the assay on Toledo cells, 1 to 5 µM.
The corresponding values for `CNCCN(C)Cc1ccc(C(N)=O)cc1C1CCN(c2cccc(C)c2)CC1` [P221] are less than 0.05 µM and less than 1 µM.
With `CCN1CC2(CCC(c3cccnc3CN(C)CCNC)CC2)CC1=O` (centres unmarked) [P222], the IC50 was less than 0.05 µM on PRMT1 and not below 5 µM in the assay with Toledo cells.
On to `CNCCN(C)Cc1ncccc1N1CCC(OC(C)C)CC1` [P224], for which the IC50 against PRMT1 was less than 0.05 µM; in the assay with Toledo cells it was 1 to 5 µM.
Consider `CNCCN(C)Cc1nc(N)ccc1C1CCN(c2cccc(C)c2)CC1` [P227], for which the values for the concentration for half-maximal inhibition (IC50) at PRMT1 and in the assay with Toledo cells were less than 0.05 µM and less than 1 µM, respectively.
In the case of `CNCCN(C)Cc1ccc2[nH]ncc2c1N1CCc2ccccc2CC1` [P228], the IC50 on PRMT1 was less than 0.05 µM; with Toledo cells, less than 1 µM.
Taken in the same sequence, the figures for `CNCCN(C)Cc1ncccc1N1CCC(Oc2ccccc2OC(F)(F)F)CC1` [P230] were less than 0.05 µM and less than 1 µM.
Taken in the same sequence, the figures for `CNCCN(C)Cc1ncccc1N1CCCC(OC)CC1` (centres unmarked) [P233] were less than 0.05 µM and not below 5 µM.
Consider `CNCCN(C)Cc1ncccc1C1CCN(c2ccc3c(c2)OC(C)(C)O3)CC1` [P234], for which the 50% inhibitory concentration (IC50) lay within 0.05 to 0.5 µM against PRMT1 and 1 to 5 µM in the assay on Toledo cells.
`CNCCN(C)Cc1ncccc1N1CCC(Oc2cccc(OC)c2)CC1` [P238]: the results for the IC50 at PRMT1 and in the assay with Toledo cells were less than 0.05 µM and less than 1 µM, respectively.
The corresponding values for `CNCCN(C)Cc1ncccc1C1CCN(c2nc(C)nc3ccccc23)CC1` [P239] are less than 0.05 µM and 1 to 5 µM.
In the case of `CNCCN(C)Cc1ncccc1C1CCN(c2nc(C)cc(N3CCCC3)n2)CC1` [P242], the 50% inhibitory concentration (IC50) is less than 0.05 µM against PRMT1 and less than 1 µM in the assay on Toledo cells.
The corresponding values for `CCOCC1(COCC)CCN(c2cccnc2CN(C)CCNC)C1` [P248] are 0.05 to 0.5 µM and 1 to 5 µM.
Turning to `CNCCN(C)Cc1ncccc1C1CCN(c2cccc(C(=O)NC)c2)CC1` [P254], the IC50 against PRMT1 was 0.05 to 0.5 µM; in the assay with Toledo cells, not below 5 µM.
Consider `CNCCN(C)Cc1ncccc1C1CCN(c2ccc(C(=O)NC)cc2)CC1` [P255], for which the figures for the IC50 on PRMT1 and with Toledo cells were less than 0.05 µM and 1 to 5 µM, respectively.
The corresponding values for `CNCCN(C)Cc1ncccc1N1CCC(Oc2ccc(-n3ccnc3)cc2)CC1` [P259] are less than 0.05 µM and 1 to 5 µM.
For `CNCCN(C)Cc1ncccc1N1CCCOCC1` [P260], the IC50 against PRMT1 is less than 0.05 µM; in the assay with Toledo cells, 1 to 5 µM.
For `CNCCN(C)Cc1ncccc1C1CCN(c2cc(C)nc(C)n2)CC1` [P262], the IC50 was less than 0.05 µM at PRMT1 and 1 to 5 µM in the assay with Toledo cells.
`CNCCN(C)Cc1ncccc1N1CCC(NC2CCOCC2)CC1` [P263]: the concentration for half-maximal inhibition (IC50) at PRMT1 is not below 0.5 µM; in the assay with Toledo cells, not below 5 µM.
Consider `CCOCC1(COCC)CCC(c2c(CN(C)CCNC)ccc3[nH]ncc23)CC1` [P266, N1-((4-(4,4-bis(ethoxymethyl)cyclohexyl)-1H-indazol-5-yl)methyl)-N1,N2-dimethylethane-1,2-diamine], for which the IC50 is less than 0.05 µM against PRMT1 and less than 1 µM in the assay with Toledo cells.
Turning to `CNCCN(C)Cc1ncccc1N1CCC(Oc2ccncc2)CC1` [P267], the IC50 against PRMT1 was less than 0.05 µM; with Toledo cells, 1 to 5 µM.
With `CNCCN(C)Cc1ncccc1N1CCC(Oc2ccccn2)CC1` [P268], the values for the 50% inhibitory concentration (IC50) on PRMT1 and with Toledo cells were less than 0.05 µM and 1 to 5 µM, respectively.
With `CNCCN(C)Cc1ncccc1N1CCC(Oc2cccnc2)CC1` [P269], the IC50 against PRMT1 was less than 0.05 µM; in the assay on Toledo cells it was 1 to 5 µM.
In the case of `CNCCN(C)Cc1ncccc1N1CCc2ccc(NC(C)=O)cc2CC1` [P270], the results for the IC50 on PRMT1 and in the assay on Toledo cells were less than 0.05 µM and 1 to 5 µM, respectively.
As for `CNCCN(C)Cc1ncccc1C1COc2ccccc2OC1` [P271], the IC50 on PRMT1 is less than 0.05 µM; in the assay with Toledo cells, 1 to 5 µM.
With `CNCCN(C)Cc1ncccc1N1CCc2nc(N(C)C)nc(C)c2CC1` [P272], the IC50 on PRMT1 is 0.05 to 0.5 µM; with Toledo cells, 1 to 5 µM.
With `CCOC(=O)C1(CC)CCN(c2cccnc2CN(C)CCNC)CC1` [P273], the IC50 was less than 0.05 µM against PRMT1 and 1 to 5 µM in the assay with Toledo cells.
In the case of `CNCCN(C)Cc1ncccc1N1CCC(N2CCC(C(=O)NC)CC2)CC1` [P275], the results for the IC50 against PRMT1 and with Toledo cells were not below 0.5 µM and not below 5 µM, respectively.
The corresponding values for `CNCCN(C)Cc1ncccc1N1CCC(N2CCCC(C(=O)NC)C2)CC1` (centres unmarked) [P276] are not below 0.5 µM and not below 5 µM.
The corresponding values for `CNCCN(C)Cc1ncccc1C1CCN(c2ccnc(C)n2)CC1` [P277] are less than 0.05 µM and less than 1 µM.
Turning to `CNCCN(C)Cc1ncccc1C1CCN(c2nccc(C)n2)CC1` [P278], the IC50 is less than 0.05 µM on PRMT1 and 1 to 5 µM in the assay on Toledo cells.
Turning to `CNCCN(C)Cc1ncccc1C1CCN(c2cc(C)ncn2)CC1` [P279], the IC50 was less than 0.05 µM on PRMT1 and 1 to 5 µM in the assay on Toledo cells.
As to `CNCCN(C)Cc1ncccc1N1CCc2nc(C)nc(C)c2CC1` [P280], the IC50 against PRMT1 is less than 0.05 µM; in the assay on Toledo cells it was not below 5 µM.
Regarding `CNCCN(C)Cc1ncccc1N1CC[C@H](OC)[C@H](OC)CC1` [P281], the IC50 on PRMT1 was 0.05 to 0.5 µM; in the assay on Toledo cells it was not below 5 µM.
Consider `CNCCN(C)Cc1ncccc1C1CCN(c2ccc(S(C)(=O)=O)cc2)CC1` [P284], for which the IC50 is less than 0.05 µM against PRMT1 and 1 to 5 µM with Toledo cells.
With `CNCCN(C)Cc1ncccc1C1CCN(c2cccc(C(=O)O)c2)CC1` [P285], the IC50 against PRMT1 was not below 0.5 µM; with Toledo cells, not below 5 µM.
On to `CNCCN(C)Cc1ncccc1N1CCc2cnc(N(C)C)nc2CC1` [P286], for which the figures for the half-maximal inhibitory concentration (IC50) on PRMT1 and with Toledo cells were less than 0.05 µM and 1 to 5 µM, respectively.
Take `CNCCN(C)Cc1ncccc1C1CCN(c2ccncn2)CC1` [P287]: the concentration for half-maximal inhibition (IC50) was less than 0.05 µM against PRMT1 and less than 1 µM with Toledo cells.
The corresponding values for `CNCCN(C)Cc1ncccc1C1CCN(c2cnccn2)CC1` [P288] are less than 0.05 µM and 1 to 5 µM.
Take `CNCCN(C)Cc1ncccc1C1CCN(c2ncccn2)CC1` [P290]: the IC50 on PRMT1 is less than 0.05 µM; in the assay on Toledo cells, 1 to 5 µM.
Consider `CNCCN(C)Cc1ncccc1N1CCc2cnc(C)nc2CC1` [P291], for which the IC50 on PRMT1 was less than 0.05 µM; in the assay with Toledo cells, not below 5 µM.
As to `CNCCN(C)Cc1ncc(N)nc1C1CCN(c2cccc(C)c2)CC1` [P292, N-((5-amino-3-(1-(m-tolyl)piperidin-4-yl)pyrazin-2-yl)methyl)-N,N′-dimethyl-1,2-ethyle nediamine], the concentration for half-maximal inhibition (IC50) against PRMT1 is less than 0.05 µM; in the assay with Toledo cells, less than 1 µM.
